From ChEMBL document CHEMBL3871305, “Imidazopyridyl compounds as aldosterone synthase inhibitors” (Bioorg Med Chem Lett, 2017)

Columns and labels:
in vitro [1] = details: rhesus monkey, liver microsomes
in vitro [2] = details: human, liver microsomes
in vitro [3] = details: rat, liver microsomes
[4] = MRT in Wistar Han rat at 1 mg/kg, iv or 2 mg/kg, po; format: ADME, organism-based; details: in vivo
[5] = Dose normalized AUC in Wistar Han rat at 2 mg/kg, po; format: ADME, organism-based; details: in vivo
[6] = Oral bioavailability in Wistar Han rat at 2 mg/kg; format: ADME, organism-based; details: in vivo
[7] = Volume of distribution at steady state in Wistar Han rat at 1 mg/kg, iv or 2 mg/kg, po; format: ADME, organism-based; details: in vivo, read-out: Vdss
[8] = Cmax in Wistar Han rat at 1 mg/kg, iv or 2 mg/kg, po; format: ADME, organism-based; details: in vivo
[9] = Half life in Wistar Han rat at 1 mg/kg, iv or 2 mg/kg, po; format: ADME, organism-based; details: in vivo
[10] = Plasma clearance in Wistar Han rat at 1 mg/kg, iv or 2 mg/kg, po; format: ADME, organism-based

SMILES	remaining at 0.5 h, 1 µM (in vitro [1]) [%]	remaining at 0.5 h, 1 µM (in vitro [2]) [%]	remaining at 0.5 h, 1 µM (in vitro [3]) [%]	MRT [4] [min]	AUC/dose [5] [µM·kg·h/mg]	bioavailability [6] [%]	Vd [7] [L/kg]	Cmax [8] [nM]	half-life [9] [min]	clearance [10] [mL/min/kg]
Fc1cncc(-c2nc3ccc(F)cn3c2C2CC2)c1	29	93	70							
CCc1c(F)cncc1-c1nc2ccc(F)cn2c1C1CC1	0	37	2							
C[C@](O)(c1cncc(-c2nc3ccc(F)cn3c2C2CC2)c1)C(F)(F)F	31	88	38	34.8	0.92	47	0.82	700	36.6	23
C[C@@](O)(c1cncc(-c2nc3ccc(F)cn3c2C2CC2)c1)C(F)(F)F	31	96	33							
Fc1cncc(-c2nc3cc(F)c(Cl)cn3c2C2CC2)c1	87	93	80							
